Data taken from the Kinase Knowledgebase extract (Sharma et al. 2016).

Target: PIK3CA (human) (UniProt P42336)
Test: Assessment of PIK3CA Kinase Activity

Chain of PIK3CA (human) (P42336 whole entry, looked up): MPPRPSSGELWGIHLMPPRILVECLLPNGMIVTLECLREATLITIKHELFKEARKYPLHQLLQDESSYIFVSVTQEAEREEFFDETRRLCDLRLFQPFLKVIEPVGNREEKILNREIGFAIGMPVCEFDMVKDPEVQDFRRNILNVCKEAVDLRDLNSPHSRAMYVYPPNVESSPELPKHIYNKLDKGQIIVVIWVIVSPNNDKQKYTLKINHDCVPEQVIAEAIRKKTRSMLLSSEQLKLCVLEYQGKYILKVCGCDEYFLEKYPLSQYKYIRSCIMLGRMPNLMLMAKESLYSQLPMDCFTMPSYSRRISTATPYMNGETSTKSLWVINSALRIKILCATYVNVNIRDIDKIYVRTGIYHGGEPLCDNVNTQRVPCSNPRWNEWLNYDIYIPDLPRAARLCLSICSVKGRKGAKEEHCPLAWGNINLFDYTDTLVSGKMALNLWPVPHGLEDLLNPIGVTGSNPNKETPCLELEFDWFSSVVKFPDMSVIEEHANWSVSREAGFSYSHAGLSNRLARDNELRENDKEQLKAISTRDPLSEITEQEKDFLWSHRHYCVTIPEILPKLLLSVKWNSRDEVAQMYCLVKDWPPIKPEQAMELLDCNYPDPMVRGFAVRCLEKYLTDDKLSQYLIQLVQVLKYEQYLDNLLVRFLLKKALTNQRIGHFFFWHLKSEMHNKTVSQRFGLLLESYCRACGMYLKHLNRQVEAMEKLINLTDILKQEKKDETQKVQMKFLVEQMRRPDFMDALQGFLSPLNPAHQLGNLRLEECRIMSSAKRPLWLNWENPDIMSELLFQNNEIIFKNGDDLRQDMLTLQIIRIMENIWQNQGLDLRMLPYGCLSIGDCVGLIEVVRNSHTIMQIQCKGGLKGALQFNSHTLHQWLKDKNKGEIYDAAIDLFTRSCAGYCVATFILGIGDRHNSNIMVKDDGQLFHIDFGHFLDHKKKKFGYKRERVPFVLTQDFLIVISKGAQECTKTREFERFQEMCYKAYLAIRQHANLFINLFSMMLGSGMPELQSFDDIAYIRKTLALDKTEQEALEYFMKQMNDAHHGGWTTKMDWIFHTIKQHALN

SMILES	IC50 [nM]
C[C@@H]1COCCN1c1cc(C2CCOCC2)nc(-c2ccc(NC(=O)Nc3ccc(N4CCN(C)CC4)nc3)cc2)n1	694
CNC(=O)Nc1ccc(-c2ccnc(N3CCOCC3)n2)cc1	394
CCNC(=O)Nc1ccc(-c2nccc(N3CCOCC3)n2)cc1	415
CN1CCN(c2ccc(NC(=O)Nc3ccc(-c4cc(N5CCOCC5)nc(-c5ccccc5)n4)cc3)cc2)CC1	7770
O=C(Nc1ccc(-c2ncc([N+](=O)[O-])c(N3CCOCC3)n2)cc1)Nc1cccnc1	155
O=C(Nc1ccncc1)Nc1ccc(-c2cc(N3CCOCC3)nc(N3CCOCC3)n2)cc1	16
O=C(NCCO)Nc1ccc(-c2nc(N3CCOCC3)c3sccc3n2)cc1	141
O=C(Nc1ccncc1)Nc1ccc(-c2nc(N3CCOCC3)c3sccc3n2)cc1	9
CCNC(=O)Nc1ccc(-c2nc(N3CCOCC3)c3sccc3n2)cc1	312
CNC(=O)Nc1ccc(-c2nccc(N3CCOCC3)n2)cc1	384
O=CNc1c(O)nc(-c2ccc(NC(=O)Nc3ccc(C(=O)NCCN4CCCCC4)cc3)cc2)nc1N1CCOCC1	202
CN1CCN(c2ccc(NC(=O)Nc3ccc(-c4nccc(N5CCOCC5)n4)cc3)cn2)CC1	46
C[C@@H]1COCCN1c1cc(N2CCOC[C@H]2C)nc(-c2ccc(NC(=O)Nc3ccncc3)cc2)n1	572
O=C(Nc1ccncc1)Nc1ccc(-c2nc(N3CCOCC3)cc(N3CCOCC3)n2)cc1	21
O=C(Nc1ccc(-c2ncc(-c3ccccc3)c(N3CCOCC3)n2)cc1)Nc1cccnc1	53
O=C(Nc1ccncc1)Nc1ccc(-c2ncc(Cl)c(N3CCOCC3)n2)cc1	42
O=C(Nc1ccc(-c2nccc(N3CCOCC3)n2)cc1)Nc1ccc(N2CCOCC2)cc1	35
O=C(Nc1ccc(-c2cc(N3CCOCC3)nc(-c3ccccc3)n2)cc1)NC1CC1	3070
CN1CCN(c2ccc(NC(=O)Nc3ccc(-c4nccc(N5CCOCC5)n4)cc3)cc2)CC1	19
CN(C)CCN(C)C(=O)c1ccc(NC(=O)Nc2ccc(-c3nc(O)c(NC=O)c(N4CCOCC4)n3)cc2)cc1	76
CNC(=O)Nc1ccc(-c2nc(N3CCOCC3)c3sccc3n2)cc1	93
O=C(Nc1ccc(-c2ccnc(N3CCOCC3)n2)cc1)OCCO	2860
C[C@@H]1COCCN1c1cc(N2CCOC[C@H]2C)nc(-c2ccc(NC(=O)Nc3ccc(N4CCN(C)CC4)cc3)cc2)n1	565
C[C@@H]1COCCN1c1cc(C2CCOCC2)nc(-c2ccc(NC(=O)Nc3ccc(C(=O)N4CCN(C)CC4)cc3)cc2)n1	80.5
O=C(Nc1ccc(-c2nccc(N3CCOCC3)n2)cc1)Nc1ccc(N2CCOCC2)nc1	112

SMILES	IC50 [nM]
C[C@@H]1COCCN1c1cc(N2CCOC[C@H]2C)nc(-c2ccc(NC(=O)Nc3cccnc3)cc2)n1	983
Cc1ccc2c(N3CCOCC3)nc(-c3ccc(NC(=O)Nc4ccncc4)cc3)nc2c1	35
CN(C)CCN(C)C(=O)c1ccc(NC(=O)Nc2ccc(-c3nc(O)c(N)c(N4CCOCC4)n3)cc2)cc1	31
O=C(Nc1ccc(-c2nc(N3CCOCC3)c3sccc3n2)cc1)NC1CC1	636
CNC(=O)Nc1ccc(-c2cc(N3CCOCC3)c3cnn(C4CCN(Cc5ccccc5)CC4)c3n2)cc1	592
O=C(Nc1ccncc1)Nc1ccc(-c2cc3nccn3c(N3CCOCC3)n2)cc1	654
O=C(Nc1ccc(-c2nc(N3CCOCC3)c3sccc3n2)cc1)Nc1cccnc1	11
COC(=O)Nc1ccc(-c2nc(N3CCOCC3)c3sccc3n2)cc1	1600
C=CCc1cnc(-c2ccc(NC(=O)Nc3cccnc3)cc2)nc1N1CCOCC1	35
CC(C)N1CCN(C(=O)c2ccc(NC(=O)Nc3ccc(-c4nc(C5CCOCC5)cc(N5CCOC[C@H]5C)n4)cc3)cc2)CC1	146
C[C@@H]1COCCN1c1cc(N2CCOC[C@H]2C)nc(-c2ccc(NC(=O)Nc3ccc(C(=O)N4CCN(C)CC4)cc3)cc2)n1	77.5
O=C(Nc1ccc(-c2ccnc(N3CCOCC3)n2)cc1)Nc1cccnc1	42
C[C@@H]1COCCN1c1cc(C2CCOCC2)nc(-c2ccc(NC(=O)Nc3ccc(N4CCN(C)CC4)cc3)cc2)n1	420
C[C@@H]1COCCN1c1cc(C2CCOCC2)nc(-c2ccc(NC(=O)Nc3cccnc3)cc2)n1	684
O=C(NCCF)Nc1ccc(-c2nc(N3CCOCC3)c3sccc3n2)cc1	364
O=C(Nc1ccc(-c2nccc(N3CCOCC3)n2)cc1)NC1CC1	2750
O=C(Nc1ccc(-c2nccc(N3CCOCC3)n2)cc1)OCCO	2550
CC(C)N1CCN(C(=O)c2ccc(NC(=O)Nc3ccc(-c4nc(N5CCOC[C@H]5C)cc(N5CCOC[C@H]5C)n4)cc3)cc2)CC1	113
O=C(Nc1ccc(-c2cc3nccn3c(N3CCOCC3)n2)cc1)NC1CC1	5080
CNC(=O)Nc1ccc(-c2cc3nccn3c(N3CCOCC3)n2)cc1	2970
C[C@@H]1COCCN1c1cc(C2CCOCC2)nc(-c2ccc(NC(=O)Nc3ccncc3)cc2)n1	383
CN1CCN(c2ccc(NC(=O)Nc3ccc(-c4ccnc(N5CCOCC5)n4)cc3)cn2)CC1	79
O=C(Nc1ccccc1)Nc1ccc(-c2nc(N3CCOCC3)c3sccc3n2)cc1	7
O=C(Nc1ccncc1)Nc1ccc(-c2nccc(N3CCOCC3)n2)cc1	15
CN(C)CCOc1ccc(NC(=O)Nc2ccc(-c3nccc(N4CCOCC4)n3)cc2)cc1	22
